The structures appear in SMILES notation. Read-outs that look alike come from different tables or passages of the source.

For assay [1], the system named is μ opioid receptors. To be noted: ref Gharagozlou et al. unpublished results; cited from earlier work.
The target in assay [2] is T1, mouse δ opioid receptor (Mus musculus, UniProt P32300). The class given is binding. To be noted: read-out: AFFINITY Ki.
For assay [3], the system named is μ opioid receptors. The following applies: ref Gharagozlou et al. unpublished results; cited from earlier work. This is another data set of the same source.
The target in assay [4] is T1, mouse δ opioid receptor. The assay is described as follows: cell-based. To be noted: for Emax: HEK293, read-out: Max Inhibition %. The class given is cell-based.
Assay [5] concerns the target T1, mouse δ opioid receptor.

T1 sequence (P32300 whole entry): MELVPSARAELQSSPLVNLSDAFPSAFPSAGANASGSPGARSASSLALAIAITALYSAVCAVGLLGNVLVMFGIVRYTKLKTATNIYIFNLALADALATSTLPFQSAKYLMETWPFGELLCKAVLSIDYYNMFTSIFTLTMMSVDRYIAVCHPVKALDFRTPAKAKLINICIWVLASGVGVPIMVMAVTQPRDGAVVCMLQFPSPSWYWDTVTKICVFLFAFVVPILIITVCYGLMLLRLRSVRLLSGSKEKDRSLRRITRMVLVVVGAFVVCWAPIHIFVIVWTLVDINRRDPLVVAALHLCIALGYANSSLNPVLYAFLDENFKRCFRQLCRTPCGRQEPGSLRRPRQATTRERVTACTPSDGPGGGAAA

Take `CN1CC[C@]2(C)c3cc(O)ccc3C[C@H]1C2(C)CCC(=O)CCC1CCCC1` (some centres unmarked) [WIN 44,441]: the “activation profile at μ opioid receptors” value in the assay with μ opioid receptors [1] is reported as “antagonist”. Further, the Ki at mouse δ opioid receptor [2] was 0.0026 ± 0.0009 µM. For the same molecule, in the assay on μ opioid receptors [3], the “affinity at μ opioid receptors” value is given as “less than 1 nM”. Also, the “Max Inhibition %” value at mouse δ opioid receptor [4] is 54 ± 6 %. At mouse δ opioid receptor [4] (read-out: IC50 ± SEM), the IC50 amounted to 0.04 ± 0.025 µM.

For the molecule `C=CCN1CC[C@]23c4c5ccc(O)c4O[C@H]2[C@@H](O)C=C[C@H]3[C@H]1C5` [Nalorphine], the “Classification as antagonist at δ opioid receptor” value on mouse δ opioid receptor [5] is on record as “Antagonist”.

Regarding `C[C@H]1[C@H]2Cc3ccc(O)cc3[C@]1(C)CCN2C` [Metazocine], on mouse δ opioid receptor [4], the “Agonist efficacy classification at δ opioid receptors” value was “super agonists” and the Emax was 77 ± 4%. For the same molecule, the IC50 on mouse δ opioid receptor [4] (IC50 ± SEM) stood at 0.159 ± 0.07 µM.

Regarding `C=C1C[C@H](C)[C@H]2[C@H]3Cc4ccc(O)cc4[C@@]2(CCN3CC2CCC2)C1` [Xorphanol], the “activation profile at μ opioid receptors” value in the assay with μ opioid receptors [1] is “very weak agonist”. The Ki on mouse δ opioid receptor [2] worked out at 0.001 ± 0.0002 µM. In addition, in the assay on μ opioid receptors [3], the “affinity at μ opioid receptors” value is “less than 1 nM”. On mouse δ opioid receptor [4], the “Agonist efficacy classification at δ opioid receptors” value is “super agonists” and the “Max Inhibition %” value is recorded as 76 ± 4^$$ ## %. The IC50 at mouse δ opioid receptor [4] (read-out: IC50 ± SEM) worked out at 0.008 ± 0.002 µM.

On to `C[C@@]12CCCCC[C@@H](Cc3ccc(O)cc31)[C@@H]2N` [Dezocine], for which the Emax at mouse δ opioid receptor [4] stood at 39%. For the same molecule, at mouse δ opioid receptor [4] (IC50 ± SEM), the IC50 was 0.477 ± 0.152 µM.

Turning to `C[C@H]1[C@H]2Cc3ccc(O)cc3[C@]1(C)CCN2CC1CC1` [Cyclazocine], the Emax on mouse δ opioid receptor [4] was determined as 53 ± 2%. The same molecule returned a half-maximal inhibitory concentration (IC50) on mouse δ opioid receptor [4] (IC50 ± SEM) of 0.006 ± 0.003 µM.

With `C=CCN1CCC2(C)c3cc(O)ccc3CC1C2C` (centres unmarked) [SKF 10047], on mouse δ opioid receptor [4], the Emax turned out to be 68 ± 9%. The molecule also yielded an IC50 against mouse δ opioid receptor [4] (IC50 ± SEM) of 0.184 ± 0.121 µM.

On to `Oc1ccc2c(c1)[C@@]13CCCC[C@@]1(O)[C@@H](C2)N(CC1CCC1)CC3` [Butorphanol], for which the Emax on mouse δ opioid receptor [4] is 64 ± 4%. At mouse δ opioid receptor [4] (IC50 ± SEM), this molecule registered an IC50 of 0.061 ± 0.012 µM.

Usually Ki stands for a measure of affinity in units of concentration, obtained from inhibition or displacement. The IC50 is the concentration that inhibits the measured activity by half.
